# Source: PubChem BioAssay (NCI)
#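 These data come from cells grown in 96-well plates and exposed to compound for 48 hours at five concentrations. GI50 marks 50% less growth. The concentration for full growth arrest is given as TGI.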
# System: SNB-75 CNS
# Assay: NCI tumour cell line growth inhibition, 48 h
row,Compound,TGI [µM]
1,COC(=O)C1=C(C)N(NC(=O)OC(C)(C)C)C(=O)C1=P(c1ccccc1)(c1ccccc1)c1ccccc1,> 100
2,O=C1OC(c2ccccc2)=N/C1=C\c1cccc2ccccc12,> 100
3,C[C@@H]1CC(=O)C2CCCC1C2=O (some centres not stated),> 100
4,c1ccc(CNn2nnc3ccccc32)cc1,> 100

# System: SW-620 colon
# Assay: NCI tumour cell line growth inhibition, 48 h
Compound,TGI [µM],GI50 [µM]
Cc1nc(N)sc1C(=O)/C=C\c1ccc2c(c1)OCO2,> 100,
COc1cc(C(C)O)c[n+](CCc2c[nH]c3ccccc23)c1 (configuration not stated),> 100,
CC1(C)SCc2nc3ncccc3n21,> 100,
Cn1c(=O)c(C(c2ccc([N+](=O)[O-])cc2)c2c(O)c3ccccc3n(C)c2=O)cc2ccccc21 (configuration not stated),> 100,
Cc1cn(C2CC(O)C(CO)O2)c(=O)n2nnnc12 (configuration not stated),> 100,
COc1ccc(C(=O)C(C(=O)CCC(=O)Nc2cccc(Cl)c2)c2ccc(OC)cc2)cc1 (configuration not stated),> 100,
CCOC(=O)C1=C(C)N(NC(=O)Nc2ccccc2)C(=O)C1=P(c1ccccc1)(c1ccccc1)c1ccccc1,> 100,
COc1cc(C=C2C(=O)NC(=O)NC2=O)cc(OC)c1OC,> 100,
Nn1c(=O)n(Cc2ccccc2)n(-c2ccccc2)c1=O,> 100,
NCC1Nc2ccccc2[C@@H](O)C1O (some centres not stated),> 100,
Cc1cccc(N2CCN(C(=S)c3ccc4c(c3)OCO4)CC2)c1,> 100,0.467
Cc1cc(C(=O)Nc2ncc(Cc3cccc(C(F)(F)F)c3)s2)c2ccccc2n1,> 100,1.21
Cc1ccc(C2=C(c3ccccc3)C(Br)(c3ccc(C)cc3)C(c3ccccc3)=C2c2ccc(C)cc2)cc1,> 100,
N#CCN1C(=O)c2cccc3cc([N+](=O)[O-])cc(c23)C1=O,> 100,
O=C1CCN2C(=O)CCN12,> 100,
Cc1ccc(C(=O)CN(/C=C/C(=O)C(F)(F)F)c2ccc(S(N)(=O)=O)cc2)cc1,> 100,> 100
Clc1nc(Cl)c(Cl)c(-c2ccccc2)n1,5.62,
CC1CC[C@]2(C(=O)O)CCC3(C)C(=CC(=O)C4[C@@]5(C)CCC(=O)C(C)(C)C5CC[C@]43C)[C@@H]2[C@H]1C (some centres not stated),> 100,
CC(C)C(Nc1c2ccccc2nc2ccccc12)C(=O)O (configuration not stated),> 100,
COc1ccccc1CCc1cc(OC)c(OC)c(OC)c1,> 100,

Compound,TGI [µM],GI50 [µM]
COc1cc2c(cc1OC)C(CC(=O)NN=C(C)C)NCC2 (configuration not stated),> 100,
COC(=O)/C(=N\Nc1nnc(C)n1N)C(C#N)c1ccc(Cl)cc1 (configuration not stated),> 100,
Cc1cccc(NC(=O)C(=O)C(C(=O)c2ccc3ccccc3c2)C2OC(=O)c3ccccc32)c1C (configuration not stated),24.2,
CS/C(N)=N\NC(=O)CCC(=O)Nc1ccccc1C(F)(F)F,> 100,
CC(C)(C)c1ccc2c(c1)S(=O)(=O)Nc1ccccc1NS(=O)(=O)c1cc(C(C)(C)C)ccc1OCCOCCOCCO2,> 100,
CC(=O)[O-].CCN(CC)c1ccc(C=NCCN=Cc2ccc(N(CC)CC)cc2[O-])c([O-])c1.[Mn+3],66.4,27.4
Clc1ccc(C2=Nn3c(COc4ccccc4Cl)nnc3SC2)c(Cl)c1,> 100,18.5
COc1cc2c3c(n(CCCNC(=O)OCC4c5ccccc5-c5ccccc54)c(=O)c2cc1OC)-c1cc2c(cc1/C3=C\CCNC(=O)OCC1c3ccccc3-c3ccccc31)OCO2,> 50,> 24.1
NC(N)=N/N=C(\c1nc2ccc([N+](=O)[O-])cc2[nH]c1=O)C(O)c1ccc([N+](=O)[O-])cc1 (configuration not stated),> 100,
CCC[CH2][Sn]1([CH2]CCC)[O]CC(CN2CCCC2)[O]1 (configuration not stated),27.6,11.5
CC1(C)C(=O)N(CCCCCCN2C(=O)C(C)(C)c3ccccc32)c2ccccc21,30.3,
NCCCCN(CCCN)/[N+]([O-])=N\O,> 100,
CCOc1ccccc1NC(=O)CC(C(=O)OC)C(=O)C(=O)OC (configuration not stated),> 100,
C[C@@]12CC=C3c4nc(Nc5cccc(O)c5)sc4CC[C@]3(C)[C@H]1CC[C@]1(C)C(=O)CC[C@@H]21,4.82,2.13
CN1C(=O)c2cccc3cc([N+](=O)[O-])cc(c23)C1=O,> 10,
COC(=O)C1=C(C)N(NC(=O)OC(C)(C)C)C(=O)C1=P(c1ccccc1)(c1ccccc1)c1ccccc1,> 100,
O=C1OC(c2ccccc2)=N/C1=C\c1cccc2ccccc12,> 100,
Cc1cccc(NC(=O)/C(=N\NC(C)(C)C)C2NC(=S)NC2=O)c1C (configuration not stated),> 100,
C[C@@H]1CC(=O)C2CCCC1C2=O (some centres not stated),> 100,
c1ccc(CNn2nnc3ccccc32)cc1,> 100,
